Legend:
[1] = tested on: Brevibacterium flavum AJ13325; assay: Growth of β-(2-thienyl)-DL-alanine resistant strains in the presence of β-(2-thienyl)-DL-alanine; assay type: cell-based; conditions: 0.25 g/L of β-(2-thienyl)-DL-alanine
Experimental: Similarly, the term “β-(2-thienyl)-DL-alanine resistance” refers to the property that a bacterium grows faster than the wild type in a medium containing β-(2-thienyl)-DL-alanine. For example, those strains that form colonies on a solid medium containing 0.25 g/L of β-(2-thienyl)-DL-alanine at 30° C. within 4 to 5 days are said to have β-(2-thienyl)-DL-alanine resistance.
To select B-(2-thienyl)-DL-alanine resistant strains from NG treated strains using Brevibacterium flavum AJ13377 as a parent strain, Brevibacterium flavum AJ13377 cells were NG treated and washed before their inoculation on a minimal medium for selection. The minimal medium for selection was a medium that contained 20 g of glucose, 1 g of ammonium sulfate, 1 g of potassium dihydrogen phosphate, 2.5 g of urea, 0.4 g of magnesium sulfate heptahydrate, 0.01 g of iron (II) sulfate heptahydrate, 0.01 g of manganese sulfate tetra- to pentahydrate, 50 μg of biotin, 200 μg of thiamin hydrochloride, 200 μg of nicotinic acid amide, and 250 mg of β-(2-thienyl)-DL-alanine per liter of distilled water. The NG treated mutant was incubated in the above-described medium at 30° C. for 5 to 10 days. The cell culture thus obtained was spread on a bouillon agar medium and incubated at 30° C. for 24 hours for colony formation. β-(2-Thienyl)-DL-alanine resistant strains were obtained from the strains that formed colonies. […]

[2] = tested on: 3-PGDH derived from AJ13324 strain; assay: Feedback inhibition of 3-PGDH from AJ13324 by L-serine; assay type: biochemical, Brevibacterium flavum; conditions: crude enzyme solution; FIG. 1
Experimental: (§1) The activity of 3-PGDH can be determined, for example, by the measurement of a decrease in coenzyme NADH2 in a reverse reaction (E. Sugimoto and L. I. Pizer, JBC, 243, 2081, 1968) or synthesis of coenzyme NADH2 in a forward reaction (Salach H. J. Method in Enzymology, vol.9, 216-220, 1966) by absorbance at 340 nm.
(§2) Brevibacterium flavum AJ13324, AJ13325 and AJ13327 were each incubated on a bouillon agar medium at 30° C. for 24 hours and a loopful of each microorganism was inoculated in a 500 ml shaking flask containing 50 ml of a fermentation medium having the composition shown in Table 2. As a control, the parent strains Brevibacterium flavum ATCC 14067 and AJ13377 were inoculated as a same manner as described above. The medium for inoculation was adjusted to pH 5.5 with sodium hydroxide and autoclaved at 115° C. for 15 minutes. […]
(§3) The enzyme activity of 3-PGDH was measured by the method of Salach H. J. et al. (Method in Enzymology, vol 9, 216-220 (1966)).
(§4) More specifically, 0.4 ml of 0.015 M NAD, 0.12 ml of 0.25 M EDTA (pH 9, NaOH), 0.1 ml of 0.05 M glutathione (pH 6, KOH), 0.5 ml of 1 M hydrazine (pH 9, acetate), 0.6 ml of 1 M Tris (pH 9, HCl), a suitable concentration of L-serine (0 to 40 mM), and water to make 2.3 ml, warmed to 25° C. in advance, were added. […] After stirring, the absorbance at 340 nm of the reaction mixture was measured for 30 seconds. […]

[3] = tested on: 3-PGDH derived from ATCC14067 strain (wild type); assay: Feedback inhibition of wild type 3-PGDH by L-serine; assay type: biochemical, Brevibacterium flavum; conditions: wild type coryneform bacterium 3-PGDH; 10 mM L-serine
Experimental: as §1, §2, §3, §4

[4] = tested on: 3-PGDH derived from AJ13377 strain; assay: Feedback inhibition of 3-PGDH from AJ13377 by L-serine; assay type: biochemical, Brevibacterium flavum; conditions: crude enzyme solution; compared with wild type strain ATCC 14067; FIG. 1
Experimental: as §1, §2, §3, §4

[5] = tested on: 3-PGDH derived from AJ13327 strain; assay: Feedback inhibition of 3-PGDH from AJ13327 by L-serine; assay type: biochemical, Brevibacterium flavum
Experimental: as §1
Brevibacterium flavum AJ13324, AJ13325 and AJ13327 were each incubated on a bouillon agar medium at 30° C. for 24 hours and a loopful of each microorganism was inoculated in a 500 ml shaking flask containing 50 ml of a fermentation medium having the composition shown in Table 2. As a control, the parent strains Brevibacterium flavum ATCC 14067 and AJ13377 were inoculated as a same manner as described above. The medium for inoculation was adjusted to pH 5.5 with sodium hydroxide and autoclaved at 115° C. for 15 minutes.
After collecting cells from the culture broth of each strain, the cells were washed twice with physiological saline and suspended in 50 mM sodium phosphate buffer (pH 7.0) containing 2 mM dithiothreitol. After ice cooling, the suspension was subjected to a sonicator to fragment the cells and the resulting liquid was ultracentrifuged. The ultracentrifugaton was run at 45,000 rpm for 1 hour to obtain a crude enzyme solution.
as §3
[…] Then, 0.2 ml of the crude enzyme solution was added and the temperature was kept the same for 5 minutes. Thereafter, 0.5 ml of 0.1 M 3-PGA (3-phosphoglycerate disodium salt, pH 7, NaOH) was added. After stirring, the absorbance at 340 nm of the reaction mixture was measured for 30 seconds. The reaction was carried out at 25° C.
For the measurement of activity, Hitachi U-2000A spectrophotometer was used.

[6] = tested on: Brevibacterium flavum AJ13324 and AJ13327; assay: Growth of azaserine resistant strains in the presence of azaserine; assay type: cell-based; conditions: 0.25 g/L of azaserine
Experimental: The term “azaserine resistance” refers to the property that a bacterium grows faster than the wild type in a medium containing azaserine. For example, those strains that form colonies on a solid medium containing 0.25 g/L of azaserine at 30° C. within 4 to 5 days are said to have azaserine resistance.
To select azaserine resistant strains from NG treated strains using Brevibacterium flavum AJ13377 as a parent strain, NG treated Brevibacterium flavum AJ13377 cells after washed were inoculated on a minimal medium for selection. The minimal medium for selection was a medium that contained 20 g of glucose, 1 g of ammonium sulfate, 1 g of potassium dihydrogen phosphate, 2.5 g of urea, 0.4 g of magnesium sulfate heptahydrate, 0.01 g of iron (II) sulfate heptahydrate, 0.01 g of manganese sulfate tetra- to pentahydrate, 50 μg of biotin, 200 μg of thiamin hydrochloride, 200 μg of nicotinic acid amide, and 250 mg of azaserine per liter of distilled water. The NG treated mutant was incubated in the above-described medium at 30° C. for 5 to 10 days. The cell culture thus obtained was spread on a bouillon agar medium and incubated at 30° C. for 24 hours for colony formation. Azaserine resistant strains were obtained from the strains that formed colonies. The mutants thus obtained included many strains that accumulated L-serine in considerable amounts at high yields. […]

Q: Which “growth in the presence of β-(2-thienyl)-DL-alanine” value [1] does the source give for NC(Cc1cccs1)C(=O)O (racemic) [β-(2-thienyl)-DL-alanine] here?
A: Its value is “able to grow”.

Q: With N[C@@H](CO)C(=O)O [L-serine] as the molecule, how does the “L-serine sensitivity of 3-PGDH” value [2] read?
A: The value was “more relieved of L-serine sensitivity”.

Q: What about the “3-PGDH activity in the presence of L-serine” value [3] of the same molecule?
A: Its value is “almost completely inhibited”.

Q: What about the “L-serine sensitivity of 3-PGDH” value [4] of the same molecule?
A: The value was “relieved of L-serine sensitivity”.

Q: And the “3-PGDH activity retained in the presence of L-serine (relative to absence of L-serine)” value ([5]; 80 mM L-serine)?
A: The value was about 100%.

Q: And the “feedback inhibition of 3-PGDH by L-serine” value ([5]; 80 mM L-serine, FIG. 1)?
A: Its value is “completely desensitized”.

Q: What about the “L-serine sensitivity of 3-PGDH” value ([5]; crude enzyme solution, FIG. 1) of the same molecule?
A: Its value is “relieved of L-serine sensitivity greatly”.

Q: [N-]=[N+]=CC(=O)OC[C@H](N)C(=O)O [azaserine] was tested. Which “growth in the presence of azaserine” value [6] did it give?
A: The value was “able to grow”.
